{"source": "patent US8350118B2", "about": "“Allergic disease model animals” (Keio University, priority 2008, dated 2013)", "tested_on": "Langerhans cells", "assay": "corneum-barrier transmission: uptake into Langerhans cells after application to ear skin surface", "type": "in vivo, mouse", "details": "7 weeks of age, 10 mg/mL applied to skin surface inside the ear, ears collected after 24 hours", "text": "To confirm that the skin-barrier function is impaired in FLG-gene deficient mice, a method was developed for evaluating skin-barrier function based on the amount of uptake of antigen into Langerhans cells that are antigen-presenting cells in epidermis, to examine the skin-barrier function in FLG^−/− mice and wild-type mice. In a conventional method for evaluating antigen uptake into Langerhans cells by externally applying antigen to the skin, reagents such as FITC that easily pass through the corneum barrier has been used. However, a change in the corneum-barrier transmission due to loss of filaggrin cannot be observed by the methods using reagents that easily pass through the corneum barrier. Thus the present inventors established for the first time a method for evaluating corneum-barrier transmission using sulfo-NHS-LC-biotin which is a cell-membrane impermeable, protein-biotinylating reagent. This method has enabled the observation of a change in corneum-barrier transmission. The structural formula of sulfo-NHS-LC-biotin is shown below. Sulfo-NHS-LC-biotin (#21335; Thermo Scientific) was applied to a FLG^−/− mouse and a wild-type littermate mouse at 7 weeks of age on the skin surface inside the ear, and the uptake into Langerhans cells was observed under a fluorescence microscope. […]"}
{"smiles": "O=C(CCCCC1SCC2NC(=O)NC21)NCCCCCC(=O)ON1C(=O)CC(S(=O)(=O)[O-])C1=O.[Na+]", "note": "(centres unmarked) [biotin, sulfo-NHS-LC-biotin]", "values": [{"measurement": "biotin uptake into Langerhans cells", "setting": "FLG−/− mouse", "value": "biotin (green) taken up was accumulated in Langerhans cell body (red)"}, {"measurement": "biotin uptake into Langerhans cells", "setting": "wild-type littermate mouse", "value": "no biotin (green) uptake into Langerhans cells (red) was observed"}]}
